The text below walks through data of patent US20240384268A1, “Oligonucleotides” (Hudson Institute of Medical Research, priority 2021, published 2024).

In the oligonucleotide strings, read from the 5' end, every base follows the letter of its sugar. An asterisk marks phosphorothioate; unmarked linkages are phosphodiester. Other units and linkages are bracketed, terminal groups are in braces. A string of capitals states the bases alone. e = 2'-O-(2-methoxyethyl) (MOE); d = 2'-deoxy (DNA); m = 2'-O-methyl

One data set deals with T1, human TLR9 (Homo sapiens, UniProt Q9NR96).
T1 construct: HA; host or cells: 293XL-hTLR9-HA (HEK293)
T1 sequence (Q9NR96 26-1032): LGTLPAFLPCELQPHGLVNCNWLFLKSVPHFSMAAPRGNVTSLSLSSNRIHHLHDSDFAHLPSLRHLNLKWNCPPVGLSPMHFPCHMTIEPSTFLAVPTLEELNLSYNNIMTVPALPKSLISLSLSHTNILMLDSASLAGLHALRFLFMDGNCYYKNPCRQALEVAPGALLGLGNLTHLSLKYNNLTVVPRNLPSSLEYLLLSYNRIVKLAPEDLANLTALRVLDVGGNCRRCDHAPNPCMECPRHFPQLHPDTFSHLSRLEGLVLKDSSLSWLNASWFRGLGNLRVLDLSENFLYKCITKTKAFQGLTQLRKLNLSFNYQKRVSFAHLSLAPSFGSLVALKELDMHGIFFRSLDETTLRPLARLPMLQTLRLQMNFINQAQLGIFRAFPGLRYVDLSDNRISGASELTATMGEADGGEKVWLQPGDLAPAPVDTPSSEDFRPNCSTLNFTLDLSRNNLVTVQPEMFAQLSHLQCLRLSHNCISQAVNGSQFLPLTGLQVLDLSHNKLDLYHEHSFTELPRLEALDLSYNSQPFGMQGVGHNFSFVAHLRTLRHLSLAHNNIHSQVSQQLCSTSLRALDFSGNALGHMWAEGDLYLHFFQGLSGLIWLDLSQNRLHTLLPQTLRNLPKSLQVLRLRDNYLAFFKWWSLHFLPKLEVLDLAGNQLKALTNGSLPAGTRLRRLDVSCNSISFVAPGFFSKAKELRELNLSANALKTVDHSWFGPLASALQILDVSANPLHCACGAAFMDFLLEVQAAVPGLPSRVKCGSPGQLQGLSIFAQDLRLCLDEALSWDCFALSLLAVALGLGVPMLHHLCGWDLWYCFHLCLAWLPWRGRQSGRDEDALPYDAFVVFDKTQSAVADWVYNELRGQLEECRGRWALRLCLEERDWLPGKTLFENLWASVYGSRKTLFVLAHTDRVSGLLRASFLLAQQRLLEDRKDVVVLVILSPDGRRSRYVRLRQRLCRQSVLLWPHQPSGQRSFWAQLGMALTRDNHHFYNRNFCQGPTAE
The experiment in a line: HEK-TLR9 NF-κB-luciferase reporter, ODN2006 stimulation. It counts as cell-based. As to conditions: HEK-TLR9; 500 nM 2′OMe or PS oligos; 200 nM ODN2006. The protocol:
In such examples, inhibition of TLR9 activity can be identified by observation of an overall decreased TLR9 response of the cell population, or a lower proportion of cells having TLR9-positive activity as compared to positive control condition in which cells are treated with TLR9 agonist in the absence of the oligonucleotide (or in the presence of an appropriate control inhibitory agent). In one example, HEK cells are transfected with TLR9 and a NF-κB reporter and incubated with an oligonucleotide and then stimulated with a TLR9 agonist. TLR9 activity can then be determined by a luciferase assay. TLR9 activity can also be analysed by measuring cytokine levels (e.g., IFN, IL-6, TNF and IL-12), for example by ELISA.
(§1) For cGAS stimulations, cells were treated for indicated duration with ASOs, prior to transfection with ISD70 (human cells) or ISD45 (mouse cells) (the ASOs were not washed off prior to ISD transfection unless otherwise indicated). The cGAS ligands ISD45 (Stetson and Medzhitov, 2006) and ISD70 (also known as VACV-70 (Unterholzner et al., 2010)) (Table 1) were resuspended as follows: 5 1d of sense and 5 μl of antisense strands at 10 μg/μl were added to 90 μl PBS under sterile conditions, heated at 75° C. for 30 min, prior to letting cool down at room temperature and aliquoting (stock at 1 μg/1 l). The ISDs were transfected at a concentration of […] at a ratio of 1 μg:1 μl with Lipofectamine 2000 in Opti-MEM (Thermo Fisher Scientific). HEK-TLR3, HEK-TLR7 and […] were treated with indicated concentration of ASOs for 20-50 min, prior to stimulation with poly(I:C) (Invivogen), R848 (Invivogen), Motolimod (MedChemExpress) and the Class B CpG oligonucleotides ODN 2006 (synthesised by IDT and resuspended in RNase-free TE buffer [Table 1]), respectively. The TLR2/1 agonist PAM3CSK4 (Invivogen), the TLR4 agonist lipopolysaccharide (Invivogen), the Class B CpG oligonucleotides ODN 1826 (synthesised by IDT and resuspended in RNase-free TE buffer), the mouse Sting agonist DMXAA (Cayman) and the human STING agonist (compound #3 from (Raanjulu et al., 2018), referred to as GSK herein—kind gift from Cancer Therapeutics CRC, Australia) were used at indicated concentrations. Aspirin (Sigma—A2093) was resuspended in pure medium to 10 mM, filter sterilised and added to the cells at 2 mM final. All ASOs were synthesised by Integrated DNA Technologies (IDT), and resuspended in RNase-free TE buffer, pH 8.0 (Thermo Fisher Scientific). Cell viability was assessed by adding 1× fresh resazurin solution to the wells (10λ solution made up with 7 mg resazurin [Sigma—R7017] dissolved in 3.5 ml PBS, sterile filtered at […]) for 4 h, prior to reading at with a Fluostar OPTIMA (BMG LABTECH) plate-reader (fluorescence: Excitation 535 nm, Emission 590); wells with medium only and 1× resazurin were used as blanks.
Following transfection, the cells were collected from the 6-wells and aliquoted into 96-wells, just before ASO and overnight TLR stimulation (as above described). Similarly, the LL171 cells expressing and ISRE-Luc reporter were treated overnight. The next day, the cells were lysed in 40 μl (for a 96-well plate) of 1× Glo Lysis buffer (Promega) for 10 min at room temperature. […] was then subjected to firefly luciferase assay using 40 μl of Luciferase Assay Reagent (Promega). Luminescence was quantified with a Fluostar OPTIMA (BMG LABTECH) luminometer.
For “mA*mC*mU*mU*mC*G*T*G*G*G*G*T*C*C*T*mU*mU*mU*mC*mA (ACUUCGTGGGGTCCTUUUCA; antisense; sugars from the 5' end m5 d10 m5, all phosphorothioate, methylation of C not given here) [[HPRT]661]”, the “inhibition of TLR9 sensing of ODN2006 (in words)” value is “significantly limited inhibition”.
On the same count and under the same terms, as for “mC*mA*mA*mC*mA*C*T*T*C*G*T*G*G*G*G*mU*mC*mC*mU*mU (CAACACTTCGTGGGGUCCUU; antisense; sugars from the 5' end m5 d10 m5, all phosphorothioate, methylation of C not given here) [[HPRT]665]”, the entry is “only poorly inhibitory”; as for “mC*mA*mC*mU*mU*C*G*T*G*G*G*G*T*C*C*mU*mU*mU*mU*mC (CACUUCGTGGGGTCCUUUUC; antisense; sugars from the 5' end m5 d10 m5, all phosphorothioate, methylation of C not given here) [[HPRT]662]”, “strongest inhibition of this series of ASOs”.
On the same count and under the same terms, as for “mC*mA*mU*mU*mA*G*G*T*G*C*A*G*A*A*A*mU*mC*mU*mU*mC (mC*mA*mU*mU*mA*dG*dG*dT*dG*dC*dA*dG*dA*dA*dA*mU*mC*mU*mU*mC) [ASO8]”, the entry is “significantly inhibited TLR9 sensing of ODN2006”.
Same read-out and setting: as for “mC*mC*mA*mA*mC*A*C*T*T*C*G*T*G*G*G*mG*mU*mC*mC*mU (CCAACACTTCGTGGGGUCCU; antisense; sugars from the 5' end m5 d10 m5, all phosphorothioate, methylation of C not given here) [[HPRT]666]”, the entry is “strongly inhibited TLR9”; as for “mG*mC*mG*mG*mU*A*T*C*C*A*T*A*G*T*C*mU*mC*mC*mA*mU (mG*mC*mG*mG*mU*dA*dT*dC*dC*dA*dT*dA*dG*dT*dC*mU*mC*mC*mA*mU; antisense) [C2-ASO2-A]”, “significantly better inhibitors of TLR9 than their parent ASO”.
On to “mG*mG*mA*mG*mC*T*T*C*G*A*G*G*C*C*C*mC*mA*mG*mG*mC (mG*mG*mA*mG*mC*dT*dT*dC*dG*dA*dG*dG*dC*dC*dC*mC*mA*mG*mG*mC; antisense) [ASO6]”, for which the “inhibition of TLR9 sensing of ODN2006 (in words)” value was “significantly inhibited TLR9 sensing of ODN2006”.
With “mG*mG*mU*mG*mG*T*C*C*A*C*A*A*C*C*C*mC*mU*mU*mU*mC (mG*mG*mU*mG*mG*dT*dC*dC*dA*dC*dA*dA*dC*dC*dC*mC*mU*mU*mU*mC; antisense) [ASO7]”, the “inhibition of TLR9 sensing of ODN2006 (in words)” value is reported as “significantly inhibited TLR9 sensing of ODN2006”.

A further data set concerns the target T2, human TLR7 (Homo sapiens, UniProt Q9NYK1).
T2 construct: HA; host or cells: 293XL-hTLR7-HA (HEK293)
T2 sequence (Q9NYK1 27-1049): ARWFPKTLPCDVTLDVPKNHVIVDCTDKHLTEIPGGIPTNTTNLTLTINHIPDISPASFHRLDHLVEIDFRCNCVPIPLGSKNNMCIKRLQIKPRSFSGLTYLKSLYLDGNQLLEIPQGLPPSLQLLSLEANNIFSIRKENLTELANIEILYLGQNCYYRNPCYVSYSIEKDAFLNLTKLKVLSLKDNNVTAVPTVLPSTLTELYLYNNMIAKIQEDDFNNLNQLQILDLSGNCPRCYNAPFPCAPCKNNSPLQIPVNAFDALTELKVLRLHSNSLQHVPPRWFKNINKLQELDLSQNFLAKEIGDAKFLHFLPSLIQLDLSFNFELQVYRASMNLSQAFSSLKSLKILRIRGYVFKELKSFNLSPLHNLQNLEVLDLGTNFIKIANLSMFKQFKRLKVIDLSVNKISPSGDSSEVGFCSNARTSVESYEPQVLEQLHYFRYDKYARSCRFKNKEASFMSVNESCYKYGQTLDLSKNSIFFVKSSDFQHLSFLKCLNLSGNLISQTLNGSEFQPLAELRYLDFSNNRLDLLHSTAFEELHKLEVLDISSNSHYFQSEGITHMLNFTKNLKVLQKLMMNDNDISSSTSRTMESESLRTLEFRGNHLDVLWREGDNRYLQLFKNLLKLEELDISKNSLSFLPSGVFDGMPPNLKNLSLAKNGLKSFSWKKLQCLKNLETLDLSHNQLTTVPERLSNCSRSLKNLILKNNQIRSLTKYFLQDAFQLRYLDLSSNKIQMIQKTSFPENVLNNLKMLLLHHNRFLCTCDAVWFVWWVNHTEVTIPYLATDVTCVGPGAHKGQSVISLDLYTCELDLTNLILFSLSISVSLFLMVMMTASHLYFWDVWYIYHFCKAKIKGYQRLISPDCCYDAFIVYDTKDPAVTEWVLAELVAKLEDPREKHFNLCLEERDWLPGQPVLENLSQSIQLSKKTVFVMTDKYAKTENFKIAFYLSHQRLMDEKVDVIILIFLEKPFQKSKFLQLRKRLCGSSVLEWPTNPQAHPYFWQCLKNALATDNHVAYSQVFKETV
The data set is described as follows: HEK-TLR7 NF-κB-luciferase reporter, R848 stimulation. It counts as cell-based. Conditions: HEK-TLR7; 400 nM 5-nt 2′OMe oligo 6 h before R848 1 μg/ml. The protocol:
In such examples, inhibition of TLR7 activity can be identified by observation of an overall decreased TLR7 response of the cell population, or a lower proportion of cells having TLR7-positive activity as compared to positive control condition in which cells are treated with TLR7 agonist in the absence of the oligonucleotide (or in the presence of an appropriate control inhibitory agent). In one example, 293XLhTLR7 (referred to as HEK-TLR7) cells are transfected with pNF-κB-Luc4 reporter, incubated with an oligonucleotide, and then stimulated with R848. TLR7 activity can be determined by a luciferase assay, which measures activated NF-κB by luminescence. TLR7 activity can also be analysed by measuring cytokine levels, for example by ELISA. […] TLR7 activity may then be assessed by the gene or protein expression of TLR7-responsive genes, such as Tnfα and Oas3.
as §1
Following transfection, the cells were collected from the 6-wells and aliquoted into 96-wells, just before ASO and overnight TLR stimulation (as above described). Similarly, the LL171 cells expressing and ISRE-Luc reporter were treated overnight.
As to mC*mG*mU*mU*mU [ShortMut1v3], the “inhibition of R848 sensing by TLR7, 6 h pre-treatment (in words)” value is given as “failed to do so”.
Still for that read-out and setting: as for mG*mG*mU*mA*mU [ShortMut1], the entry is “sufficient to inhibit R848 sensing”.

The same data set, now with this note: HEK-TLR7; 100-500 nM oligo 20-50 min before R848 1 μg/ml.
Consider “/52MOErT/*/i2MOErG/*/i2MOErT/*/i2MOErC/*/i2MOErC/*T*T*G*C*A*C*G*T*G*C*/i2MOErC/*/i2MOErT/*/i2MOErA/*/i2MOErA/*/32MOErG/ (TGTCCTTGCACGTGCCTAAG; sugars from the 5' end e5 d10 e5, all phosphorothioate, methylation of C not given here) [F5-Mut]”, for which the “inhibition of R848 sensing by TLR7, short pre-treatment (in words)” value was “significantly less inhibitory”.
With mG*mG*mU*mA*mU [ShortMut1], the “inhibition of R848 sensing by TLR7, short pre-treatment (in words)” value is reported as “no inhibition was observed”.
